Results on one compound are retold here after ChEMBL document CHEMBL5096151, “Phytocannabinoid Pharmacology: Medicinal Properties of Cannabis sativa Constituents Aside from the "Big Two"” (J Nat Prod, 2021).

In experiment [1] the target is G-protein coupled receptor 55 (Homo sapiens, UniProt Q9Y2T6). Put plainly: Binding affinity to human GPR55 expressed in HEK293 cells assessed as LPI-stimulated ERK1/2 phosphorylation. Format: cell-based.
Experiment [2] deals with T1, Transient receptor potential cation channel subfamily V member 2 (Homo sapiens, UniProt Q9Y5S1).
T1 sequence (Q9Y5S1 whole entry): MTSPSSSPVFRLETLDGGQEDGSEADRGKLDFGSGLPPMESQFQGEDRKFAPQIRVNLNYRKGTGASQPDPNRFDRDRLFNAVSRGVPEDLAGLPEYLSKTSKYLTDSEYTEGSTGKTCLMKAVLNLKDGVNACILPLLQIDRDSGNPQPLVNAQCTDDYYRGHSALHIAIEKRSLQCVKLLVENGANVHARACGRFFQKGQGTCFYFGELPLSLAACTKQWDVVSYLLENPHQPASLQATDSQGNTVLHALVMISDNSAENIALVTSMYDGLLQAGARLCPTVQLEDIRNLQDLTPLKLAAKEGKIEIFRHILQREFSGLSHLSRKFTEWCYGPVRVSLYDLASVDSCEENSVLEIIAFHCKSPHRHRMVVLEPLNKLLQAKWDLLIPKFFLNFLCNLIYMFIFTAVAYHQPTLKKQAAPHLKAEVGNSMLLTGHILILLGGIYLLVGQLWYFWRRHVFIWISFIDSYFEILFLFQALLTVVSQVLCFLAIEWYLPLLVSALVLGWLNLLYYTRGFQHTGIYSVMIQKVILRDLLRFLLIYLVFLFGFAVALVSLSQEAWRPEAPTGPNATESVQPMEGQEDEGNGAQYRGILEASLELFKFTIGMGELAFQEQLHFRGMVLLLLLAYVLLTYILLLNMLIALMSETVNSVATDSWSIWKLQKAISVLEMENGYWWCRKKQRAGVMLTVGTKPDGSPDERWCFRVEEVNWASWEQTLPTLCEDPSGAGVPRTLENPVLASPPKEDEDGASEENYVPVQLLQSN
In words: Agonist activity at ionomycin-stimulated TRPV2 (unknown origin) channel desensitization in presence of lysophosphatidylcholine.

For experiment [3], the target named is T2, Transient receptor potential cation channel subfamily V member 1 (Homo sapiens, UniProt Q8NER1). Put plainly: Agonist activity at ionomycin-stimulated TRPV1 (unknown origin) activation.
Experiment [4] concerns the target T3, Cytochrome P450 2B6 (Homo sapiens, UniProt P20813).
T3 sequence (P20813 whole entry): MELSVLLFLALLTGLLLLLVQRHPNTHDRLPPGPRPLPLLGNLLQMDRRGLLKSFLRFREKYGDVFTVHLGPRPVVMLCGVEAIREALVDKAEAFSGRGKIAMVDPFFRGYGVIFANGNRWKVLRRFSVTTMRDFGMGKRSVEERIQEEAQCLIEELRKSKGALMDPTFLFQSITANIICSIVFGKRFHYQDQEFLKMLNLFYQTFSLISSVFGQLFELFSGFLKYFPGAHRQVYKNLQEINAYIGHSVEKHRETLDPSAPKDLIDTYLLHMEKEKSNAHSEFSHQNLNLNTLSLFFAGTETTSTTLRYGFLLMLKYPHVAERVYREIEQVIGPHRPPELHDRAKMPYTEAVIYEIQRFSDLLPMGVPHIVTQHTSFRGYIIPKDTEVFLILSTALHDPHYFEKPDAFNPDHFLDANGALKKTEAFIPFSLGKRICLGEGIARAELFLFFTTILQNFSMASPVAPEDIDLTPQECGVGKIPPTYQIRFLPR
Put plainly: Mixed inhibition of recombinant CYP2B6 (unknown origin) using coumarin as substrate in presence of NADPH-generating system by Lineweaver-burk plots analysis. The class given is ADME.

Experiment [5] concerns the target T4, Transient receptor potential cation channel subfamily A member 1 (Homo sapiens, UniProt O75762). Put plainly: Agonist activity at TRPA1 (unknown origin) activation assessed as efficacy relative to control. To be noted: filed as agonist.
For experiment [6], the target named is G-protein coupled receptor 6 (Homo sapiens, UniProt P46095). Put plainly: Binding affinity to human GPR6 expressed in HEK293 cells assessed as reduction in cAMP level by measuring efficacy incubated for 1 hr by HTRF assay relative to control. Format: cell-based.
Experiment [7] has as its target Cytochrome P450 2D6 (Homo sapiens, UniProt P10635). Put plainly: Inhibition of CYP2D6 in human liver microsomes by measuring inhibition constant in presence of NADPH-generating system incubated for 20 mins. Format: ADME, Microsome.
Experiment [8] has as its target Cytochrome P450 1A1 (Homo sapiens, UniProt P04798). In words: Inhibition of recombinant CYP1A1 (unknown origin) preincubated with NADPH for 20 mins and measured after 30 min. Format: ADME.
In experiment [9] the target is T4, Transient receptor potential cation channel subfamily A member 1. In words: Agonist activity at TRPA1 (unknown origin) activation.
The target in experiment [10] is T5, Transient receptor potential cation channel subfamily V member 4 (Homo sapiens, UniProt Q9HBA0). Put plainly: Agonist activity at ionomycin-stimulated TRPV4 (unknown origin) activation.
Experiment [11] concerns the target T2, Transient receptor potential cation channel subfamily V member 1. Put plainly: Agonist activity at ionomycin-stimulated TRPV1 (unknown origin) channel desensitization in presence of capsaicin.
For experiment [12], the target named is T5, Transient receptor potential cation channel subfamily V member 4. In words: Agonist activity at ionomycin-stimulated TRPV4 (unknown origin) channel desensitization in presence of 4alphaPDD.
The target of experiment [13] is Cytochrome P450 2C19 (Homo sapiens, UniProt P33261). Put plainly: Mixed inhibition of CYP2C19 (unknown origin). Format: ADME.
Experiment [14] addresses T5, Transient receptor potential cation channel subfamily V member 4. In words: Agonist activity at ionomycin-stimulated TRPV4 (unknown origin) activation assessed as efficacy relative to control.
The target of experiment [15] is T6, Transient receptor potential cation channel subfamily V member 3 (Homo sapiens, UniProt Q8NET8).
T6 sequence (Q8NET8 whole entry): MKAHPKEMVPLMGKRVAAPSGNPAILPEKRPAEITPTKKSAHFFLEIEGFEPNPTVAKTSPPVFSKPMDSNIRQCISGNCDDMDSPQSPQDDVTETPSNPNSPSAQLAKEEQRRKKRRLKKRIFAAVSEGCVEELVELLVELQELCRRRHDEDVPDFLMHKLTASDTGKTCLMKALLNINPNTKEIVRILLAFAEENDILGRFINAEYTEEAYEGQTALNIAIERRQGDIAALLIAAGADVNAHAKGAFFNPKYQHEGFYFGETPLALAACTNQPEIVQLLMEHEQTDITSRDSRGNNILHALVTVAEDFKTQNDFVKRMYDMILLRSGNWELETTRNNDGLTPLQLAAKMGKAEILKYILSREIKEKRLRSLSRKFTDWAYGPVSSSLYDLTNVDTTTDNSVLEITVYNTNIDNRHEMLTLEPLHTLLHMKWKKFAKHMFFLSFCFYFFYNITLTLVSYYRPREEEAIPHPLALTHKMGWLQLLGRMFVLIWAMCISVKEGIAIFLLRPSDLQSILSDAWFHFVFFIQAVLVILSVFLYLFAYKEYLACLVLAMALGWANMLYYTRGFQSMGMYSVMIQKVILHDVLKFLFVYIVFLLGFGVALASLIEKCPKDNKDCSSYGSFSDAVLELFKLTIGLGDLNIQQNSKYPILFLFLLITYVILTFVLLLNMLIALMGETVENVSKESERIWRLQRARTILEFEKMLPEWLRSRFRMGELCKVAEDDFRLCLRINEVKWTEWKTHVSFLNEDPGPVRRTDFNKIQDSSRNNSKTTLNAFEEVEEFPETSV
In words: Agonist activity at ionomycin-stimulated TRPV3 (unknown origin) activation.

T5 sequence (Q9HBA0 whole entry): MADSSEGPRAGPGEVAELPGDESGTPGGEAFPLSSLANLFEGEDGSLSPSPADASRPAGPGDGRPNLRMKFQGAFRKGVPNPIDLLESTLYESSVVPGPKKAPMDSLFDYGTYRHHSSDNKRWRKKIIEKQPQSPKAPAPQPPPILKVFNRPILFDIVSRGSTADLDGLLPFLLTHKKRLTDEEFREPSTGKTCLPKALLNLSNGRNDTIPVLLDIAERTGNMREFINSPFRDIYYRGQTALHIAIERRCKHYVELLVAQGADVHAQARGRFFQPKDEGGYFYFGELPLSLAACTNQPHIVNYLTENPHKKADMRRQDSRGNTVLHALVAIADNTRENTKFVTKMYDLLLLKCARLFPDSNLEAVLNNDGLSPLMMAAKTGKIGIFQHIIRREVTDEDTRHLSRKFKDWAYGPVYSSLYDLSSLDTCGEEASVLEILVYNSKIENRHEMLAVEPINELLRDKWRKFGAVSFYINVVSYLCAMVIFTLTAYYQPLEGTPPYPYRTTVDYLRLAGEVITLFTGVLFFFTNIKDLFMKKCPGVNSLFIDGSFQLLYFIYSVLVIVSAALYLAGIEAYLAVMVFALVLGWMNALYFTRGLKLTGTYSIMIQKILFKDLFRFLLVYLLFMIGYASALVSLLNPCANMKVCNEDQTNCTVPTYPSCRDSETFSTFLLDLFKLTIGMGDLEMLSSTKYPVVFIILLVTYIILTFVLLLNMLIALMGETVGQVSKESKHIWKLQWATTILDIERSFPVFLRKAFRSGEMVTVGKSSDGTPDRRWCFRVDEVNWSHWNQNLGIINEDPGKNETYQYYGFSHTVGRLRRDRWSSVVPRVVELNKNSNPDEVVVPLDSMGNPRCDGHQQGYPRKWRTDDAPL
T4 sequence (O75762 whole entry): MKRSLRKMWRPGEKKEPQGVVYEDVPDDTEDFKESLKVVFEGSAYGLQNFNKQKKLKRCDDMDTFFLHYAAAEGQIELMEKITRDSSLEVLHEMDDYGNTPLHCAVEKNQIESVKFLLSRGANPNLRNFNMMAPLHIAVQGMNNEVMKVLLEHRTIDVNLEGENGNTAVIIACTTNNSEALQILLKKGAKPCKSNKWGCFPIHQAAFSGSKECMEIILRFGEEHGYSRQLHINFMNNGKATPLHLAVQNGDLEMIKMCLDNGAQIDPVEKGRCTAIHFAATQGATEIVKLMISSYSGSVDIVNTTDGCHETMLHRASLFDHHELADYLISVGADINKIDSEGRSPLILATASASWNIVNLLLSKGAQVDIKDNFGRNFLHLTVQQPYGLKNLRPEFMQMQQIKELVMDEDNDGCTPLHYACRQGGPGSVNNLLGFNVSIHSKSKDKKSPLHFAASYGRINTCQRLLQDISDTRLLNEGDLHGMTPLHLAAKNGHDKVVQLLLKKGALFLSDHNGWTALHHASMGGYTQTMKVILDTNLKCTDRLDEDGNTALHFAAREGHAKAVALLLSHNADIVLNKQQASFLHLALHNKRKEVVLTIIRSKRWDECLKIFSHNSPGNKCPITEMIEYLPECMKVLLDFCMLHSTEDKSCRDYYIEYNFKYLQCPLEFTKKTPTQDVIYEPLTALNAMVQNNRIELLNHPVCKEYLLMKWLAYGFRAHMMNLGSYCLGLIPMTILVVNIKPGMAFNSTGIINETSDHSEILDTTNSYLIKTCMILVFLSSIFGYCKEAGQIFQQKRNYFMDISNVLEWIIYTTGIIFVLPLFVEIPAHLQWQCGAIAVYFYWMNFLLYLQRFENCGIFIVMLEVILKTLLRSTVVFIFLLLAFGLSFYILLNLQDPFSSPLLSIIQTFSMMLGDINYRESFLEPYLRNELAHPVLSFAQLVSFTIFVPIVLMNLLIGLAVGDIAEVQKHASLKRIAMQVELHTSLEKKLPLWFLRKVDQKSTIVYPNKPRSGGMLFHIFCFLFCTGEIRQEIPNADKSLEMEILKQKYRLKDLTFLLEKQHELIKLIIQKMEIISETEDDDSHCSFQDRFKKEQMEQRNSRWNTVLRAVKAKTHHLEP
T2 sequence (Q8NER1 whole entry): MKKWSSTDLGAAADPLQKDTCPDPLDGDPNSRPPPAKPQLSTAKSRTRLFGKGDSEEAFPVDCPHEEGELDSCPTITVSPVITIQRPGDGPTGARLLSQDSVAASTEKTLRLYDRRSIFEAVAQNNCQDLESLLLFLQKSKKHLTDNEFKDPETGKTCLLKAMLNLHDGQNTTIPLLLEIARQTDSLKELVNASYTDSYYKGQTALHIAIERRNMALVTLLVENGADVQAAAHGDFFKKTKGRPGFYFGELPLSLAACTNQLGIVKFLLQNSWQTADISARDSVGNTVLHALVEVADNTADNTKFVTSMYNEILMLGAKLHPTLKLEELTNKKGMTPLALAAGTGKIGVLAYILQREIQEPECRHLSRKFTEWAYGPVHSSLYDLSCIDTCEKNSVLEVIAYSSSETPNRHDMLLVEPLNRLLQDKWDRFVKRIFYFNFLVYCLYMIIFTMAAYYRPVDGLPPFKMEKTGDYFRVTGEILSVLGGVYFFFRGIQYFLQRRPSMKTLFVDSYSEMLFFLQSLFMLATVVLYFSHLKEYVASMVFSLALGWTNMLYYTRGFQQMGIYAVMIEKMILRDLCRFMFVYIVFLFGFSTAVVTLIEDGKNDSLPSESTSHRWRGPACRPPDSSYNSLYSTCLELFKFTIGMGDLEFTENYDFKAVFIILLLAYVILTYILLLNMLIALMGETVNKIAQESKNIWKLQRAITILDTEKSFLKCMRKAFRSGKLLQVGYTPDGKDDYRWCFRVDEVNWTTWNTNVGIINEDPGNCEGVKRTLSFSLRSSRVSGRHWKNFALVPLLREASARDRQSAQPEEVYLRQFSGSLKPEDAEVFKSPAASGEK
G-protein coupled receptor 55, sequence (Q9Y2T6 whole entry): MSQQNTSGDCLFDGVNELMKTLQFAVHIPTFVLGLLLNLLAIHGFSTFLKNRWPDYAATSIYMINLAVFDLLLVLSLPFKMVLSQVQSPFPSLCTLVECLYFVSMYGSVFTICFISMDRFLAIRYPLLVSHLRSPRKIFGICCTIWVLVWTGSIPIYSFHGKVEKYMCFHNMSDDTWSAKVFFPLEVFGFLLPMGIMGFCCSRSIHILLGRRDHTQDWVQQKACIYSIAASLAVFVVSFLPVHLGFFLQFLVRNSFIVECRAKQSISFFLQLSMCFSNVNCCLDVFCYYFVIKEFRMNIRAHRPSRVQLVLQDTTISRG
G-protein coupled receptor 6, sequence (P46095 whole entry): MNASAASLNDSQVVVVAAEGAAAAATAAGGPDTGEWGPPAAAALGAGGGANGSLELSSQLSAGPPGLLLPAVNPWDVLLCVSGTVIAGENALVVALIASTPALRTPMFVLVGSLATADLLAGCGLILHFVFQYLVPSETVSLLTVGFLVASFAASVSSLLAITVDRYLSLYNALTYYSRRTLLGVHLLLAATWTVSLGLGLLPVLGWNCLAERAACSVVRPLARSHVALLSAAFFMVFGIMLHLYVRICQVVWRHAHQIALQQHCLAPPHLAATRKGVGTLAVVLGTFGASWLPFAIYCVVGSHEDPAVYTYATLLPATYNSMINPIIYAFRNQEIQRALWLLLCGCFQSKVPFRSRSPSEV
Cytochrome P450 2C19, sequence (P33261 whole entry): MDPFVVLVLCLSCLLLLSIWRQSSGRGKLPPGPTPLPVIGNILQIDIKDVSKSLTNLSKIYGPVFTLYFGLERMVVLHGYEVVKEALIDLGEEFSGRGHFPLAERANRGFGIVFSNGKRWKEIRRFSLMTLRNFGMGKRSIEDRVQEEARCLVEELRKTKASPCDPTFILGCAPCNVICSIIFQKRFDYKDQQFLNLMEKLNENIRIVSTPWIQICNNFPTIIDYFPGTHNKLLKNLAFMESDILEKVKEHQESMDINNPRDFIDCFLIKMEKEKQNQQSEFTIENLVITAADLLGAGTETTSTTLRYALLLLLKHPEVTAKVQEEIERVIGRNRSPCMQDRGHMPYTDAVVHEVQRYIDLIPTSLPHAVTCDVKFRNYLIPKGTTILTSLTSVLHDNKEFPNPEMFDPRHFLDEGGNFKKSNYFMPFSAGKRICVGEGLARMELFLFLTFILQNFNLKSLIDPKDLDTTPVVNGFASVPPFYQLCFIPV
Cytochrome P450 1A1, sequence (P04798 whole entry): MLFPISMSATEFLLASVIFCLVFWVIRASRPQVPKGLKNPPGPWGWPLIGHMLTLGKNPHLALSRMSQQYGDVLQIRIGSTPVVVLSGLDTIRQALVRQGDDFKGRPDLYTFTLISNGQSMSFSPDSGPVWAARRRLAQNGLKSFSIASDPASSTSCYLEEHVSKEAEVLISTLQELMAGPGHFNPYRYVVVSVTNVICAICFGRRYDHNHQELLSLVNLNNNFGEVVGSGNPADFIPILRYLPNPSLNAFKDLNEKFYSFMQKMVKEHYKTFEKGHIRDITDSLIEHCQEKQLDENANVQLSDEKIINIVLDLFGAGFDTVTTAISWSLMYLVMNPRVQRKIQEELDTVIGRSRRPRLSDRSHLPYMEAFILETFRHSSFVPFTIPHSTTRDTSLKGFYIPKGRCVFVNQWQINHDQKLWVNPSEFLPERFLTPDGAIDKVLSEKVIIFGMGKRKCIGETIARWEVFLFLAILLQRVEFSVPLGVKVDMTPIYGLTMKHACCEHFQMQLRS
Cytochrome P450 2D6, sequence (P10635 whole entry): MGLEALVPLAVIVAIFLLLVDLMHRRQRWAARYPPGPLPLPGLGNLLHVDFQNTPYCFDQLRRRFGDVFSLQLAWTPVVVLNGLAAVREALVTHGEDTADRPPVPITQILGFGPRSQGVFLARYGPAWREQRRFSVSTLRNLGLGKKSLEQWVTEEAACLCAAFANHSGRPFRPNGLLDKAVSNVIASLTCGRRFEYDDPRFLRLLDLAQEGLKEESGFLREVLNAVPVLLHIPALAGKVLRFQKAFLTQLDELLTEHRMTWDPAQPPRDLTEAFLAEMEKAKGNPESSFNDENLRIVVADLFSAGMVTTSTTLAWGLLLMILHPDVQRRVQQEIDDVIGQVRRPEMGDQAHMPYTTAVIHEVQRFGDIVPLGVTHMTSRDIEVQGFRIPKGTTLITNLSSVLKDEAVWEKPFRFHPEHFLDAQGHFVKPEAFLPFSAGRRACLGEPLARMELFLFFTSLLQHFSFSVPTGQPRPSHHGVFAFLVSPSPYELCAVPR

The term EC50 denotes the concentration that produces a half-maximal response. Broadly, the IC50 is the concentration needed to halve the response being measured. What is called Ki is a dissociation constant, usually derived from enzyme kinetics or from competition with a known ligand. Turning to `C=C(C)[C@@H]1CCC(C)=C[C@H]1c1c(O)cc(CCC)cc1O` [CANNABIDIVARIN], the half-maximal effective concentration (EC50) came to 400 nM in experiment [1]; 3600 nM in [3]; 420 nM in experiment [9]; 900 nM in [10]; 1700 nM in experiment [15]. Besides, the IC50 in experiment [2] turned out to be 31000 nM; in [8] it was 60 nM; in experiment [11] it was 10000 nM; in [12], 2900 nM; in experiment [13], 3700 nM. Also, the results for the Ki in experiment [4] and in experiment [7] were 1300 nM and 5800 nM, respectively. Moreover, the Efficacy stood at 105% in experiment [5], 90% in [6] and 30% in experiment [14].
